Values belong to the compound of their own block, whether it stands above or below them.
Legend:
Settings in all cases: at 10 µM
[1] = target: Protein arginine N-methyltransferase 1 (Homo sapiens, UniProt Q99873)
[2] = target: T1, Cytoplasmic tyrosine-protein kinase BMX (Homo sapiens) (UniProt P51813)
T1 sequence (whole entry): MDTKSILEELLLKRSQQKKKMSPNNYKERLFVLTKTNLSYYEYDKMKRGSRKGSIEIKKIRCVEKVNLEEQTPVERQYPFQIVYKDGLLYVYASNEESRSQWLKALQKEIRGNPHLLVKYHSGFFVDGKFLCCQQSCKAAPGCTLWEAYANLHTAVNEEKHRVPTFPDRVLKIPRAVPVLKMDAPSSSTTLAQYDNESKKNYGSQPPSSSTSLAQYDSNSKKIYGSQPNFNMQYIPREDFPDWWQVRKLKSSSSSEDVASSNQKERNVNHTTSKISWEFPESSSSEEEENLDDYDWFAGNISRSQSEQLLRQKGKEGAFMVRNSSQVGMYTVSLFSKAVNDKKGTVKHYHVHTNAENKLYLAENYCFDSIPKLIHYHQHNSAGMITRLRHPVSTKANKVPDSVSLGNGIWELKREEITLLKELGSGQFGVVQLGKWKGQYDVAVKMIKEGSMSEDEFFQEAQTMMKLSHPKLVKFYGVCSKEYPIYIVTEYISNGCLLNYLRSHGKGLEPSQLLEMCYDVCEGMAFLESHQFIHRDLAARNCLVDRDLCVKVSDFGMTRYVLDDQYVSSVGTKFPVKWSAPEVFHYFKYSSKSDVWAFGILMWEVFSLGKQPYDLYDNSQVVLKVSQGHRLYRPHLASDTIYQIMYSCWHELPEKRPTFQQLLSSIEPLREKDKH

[3] = test system: Epidermal growth factor receptor (Homo sapiens), P00533 [G719C]; test: (§1) Selectivity interaction (KinomeScan (DiscoverX)) EUB0000666a EGFR
[4] = test system: Epidermal growth factor receptor (Homo sapiens), P00533 [L858R,T790M]; test: as §1
[5] = target: T2, Inhibitor of nuclear factor kappa-B kinase subunit alpha (Homo sapiens) (UniProt O15111); test: Selectivity interaction (KinomeScan (DiscoverX)) EUB0000092b CHUK
T2 sequence (whole entry): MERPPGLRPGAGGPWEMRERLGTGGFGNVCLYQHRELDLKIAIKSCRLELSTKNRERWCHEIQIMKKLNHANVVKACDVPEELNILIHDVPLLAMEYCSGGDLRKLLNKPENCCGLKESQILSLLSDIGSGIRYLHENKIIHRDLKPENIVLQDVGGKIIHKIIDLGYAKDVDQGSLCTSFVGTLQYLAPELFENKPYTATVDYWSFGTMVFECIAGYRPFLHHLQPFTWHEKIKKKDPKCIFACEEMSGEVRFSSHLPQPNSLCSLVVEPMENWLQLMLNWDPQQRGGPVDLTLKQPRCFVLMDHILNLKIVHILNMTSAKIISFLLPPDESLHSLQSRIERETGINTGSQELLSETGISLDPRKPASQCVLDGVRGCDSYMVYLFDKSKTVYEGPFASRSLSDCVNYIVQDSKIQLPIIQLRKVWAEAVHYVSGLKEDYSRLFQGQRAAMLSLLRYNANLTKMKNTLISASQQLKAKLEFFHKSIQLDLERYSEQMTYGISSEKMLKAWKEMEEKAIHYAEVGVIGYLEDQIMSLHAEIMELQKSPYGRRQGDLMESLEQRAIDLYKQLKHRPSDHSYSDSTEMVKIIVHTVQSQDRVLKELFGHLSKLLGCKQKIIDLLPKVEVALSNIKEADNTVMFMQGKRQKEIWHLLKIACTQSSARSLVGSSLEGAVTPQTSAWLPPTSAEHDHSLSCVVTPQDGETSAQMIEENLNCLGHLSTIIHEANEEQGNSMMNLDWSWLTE

[6] = target: T3, Serine/threonine-protein kinase 17B (Homo sapiens) (UniProt O94768); test: Selectivity interaction (LanthaScreen Eu Kinase Binding Assay) EUB0001632a STK17B
T3 sequence (whole entry): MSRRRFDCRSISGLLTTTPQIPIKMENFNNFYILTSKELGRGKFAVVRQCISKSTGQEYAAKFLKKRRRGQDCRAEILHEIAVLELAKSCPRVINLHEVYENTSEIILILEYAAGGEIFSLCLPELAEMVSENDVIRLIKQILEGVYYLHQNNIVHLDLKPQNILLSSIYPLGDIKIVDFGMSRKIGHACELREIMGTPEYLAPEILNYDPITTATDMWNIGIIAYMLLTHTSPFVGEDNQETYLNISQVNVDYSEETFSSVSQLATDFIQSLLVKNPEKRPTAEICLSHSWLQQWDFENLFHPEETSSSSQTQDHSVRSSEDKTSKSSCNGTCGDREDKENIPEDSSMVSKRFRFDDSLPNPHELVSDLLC

[7] = target: T4, Ephrin type-A receptor 8 (Homo sapiens) (UniProt P29322); test: Selectivity interaction (Kinase panel (Z-LYTE Assay)) EUB0001632a EPHA8
T4 sequence (whole entry): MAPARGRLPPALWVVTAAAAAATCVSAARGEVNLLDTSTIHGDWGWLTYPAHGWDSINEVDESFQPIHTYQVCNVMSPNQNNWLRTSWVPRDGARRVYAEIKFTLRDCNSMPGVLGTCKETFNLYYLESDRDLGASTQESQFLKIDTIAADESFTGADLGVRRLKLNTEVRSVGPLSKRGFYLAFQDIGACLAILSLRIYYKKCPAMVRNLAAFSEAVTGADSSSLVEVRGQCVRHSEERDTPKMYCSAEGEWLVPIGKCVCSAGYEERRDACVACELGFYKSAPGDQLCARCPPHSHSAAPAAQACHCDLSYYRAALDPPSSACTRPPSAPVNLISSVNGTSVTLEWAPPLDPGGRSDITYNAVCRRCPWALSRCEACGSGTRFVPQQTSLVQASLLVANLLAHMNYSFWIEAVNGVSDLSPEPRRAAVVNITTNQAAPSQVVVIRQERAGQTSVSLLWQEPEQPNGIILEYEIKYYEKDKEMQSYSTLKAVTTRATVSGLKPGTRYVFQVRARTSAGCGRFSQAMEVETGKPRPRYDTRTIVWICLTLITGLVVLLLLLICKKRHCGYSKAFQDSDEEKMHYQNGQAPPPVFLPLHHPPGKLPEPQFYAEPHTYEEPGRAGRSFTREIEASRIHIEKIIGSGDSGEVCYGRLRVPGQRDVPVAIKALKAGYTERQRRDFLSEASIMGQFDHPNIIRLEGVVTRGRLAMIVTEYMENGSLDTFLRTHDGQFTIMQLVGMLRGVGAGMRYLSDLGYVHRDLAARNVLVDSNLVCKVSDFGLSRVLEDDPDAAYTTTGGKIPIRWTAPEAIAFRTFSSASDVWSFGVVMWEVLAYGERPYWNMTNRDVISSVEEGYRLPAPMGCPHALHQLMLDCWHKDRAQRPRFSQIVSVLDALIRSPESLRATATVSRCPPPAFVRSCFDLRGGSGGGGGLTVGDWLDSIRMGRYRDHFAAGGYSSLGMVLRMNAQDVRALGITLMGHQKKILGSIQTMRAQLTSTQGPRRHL

Sequence of Epidermal growth factor receptor (Homo sapiens), P00533 [L858R,T790M] (P00533 whole entry T790M/L858R, looked up): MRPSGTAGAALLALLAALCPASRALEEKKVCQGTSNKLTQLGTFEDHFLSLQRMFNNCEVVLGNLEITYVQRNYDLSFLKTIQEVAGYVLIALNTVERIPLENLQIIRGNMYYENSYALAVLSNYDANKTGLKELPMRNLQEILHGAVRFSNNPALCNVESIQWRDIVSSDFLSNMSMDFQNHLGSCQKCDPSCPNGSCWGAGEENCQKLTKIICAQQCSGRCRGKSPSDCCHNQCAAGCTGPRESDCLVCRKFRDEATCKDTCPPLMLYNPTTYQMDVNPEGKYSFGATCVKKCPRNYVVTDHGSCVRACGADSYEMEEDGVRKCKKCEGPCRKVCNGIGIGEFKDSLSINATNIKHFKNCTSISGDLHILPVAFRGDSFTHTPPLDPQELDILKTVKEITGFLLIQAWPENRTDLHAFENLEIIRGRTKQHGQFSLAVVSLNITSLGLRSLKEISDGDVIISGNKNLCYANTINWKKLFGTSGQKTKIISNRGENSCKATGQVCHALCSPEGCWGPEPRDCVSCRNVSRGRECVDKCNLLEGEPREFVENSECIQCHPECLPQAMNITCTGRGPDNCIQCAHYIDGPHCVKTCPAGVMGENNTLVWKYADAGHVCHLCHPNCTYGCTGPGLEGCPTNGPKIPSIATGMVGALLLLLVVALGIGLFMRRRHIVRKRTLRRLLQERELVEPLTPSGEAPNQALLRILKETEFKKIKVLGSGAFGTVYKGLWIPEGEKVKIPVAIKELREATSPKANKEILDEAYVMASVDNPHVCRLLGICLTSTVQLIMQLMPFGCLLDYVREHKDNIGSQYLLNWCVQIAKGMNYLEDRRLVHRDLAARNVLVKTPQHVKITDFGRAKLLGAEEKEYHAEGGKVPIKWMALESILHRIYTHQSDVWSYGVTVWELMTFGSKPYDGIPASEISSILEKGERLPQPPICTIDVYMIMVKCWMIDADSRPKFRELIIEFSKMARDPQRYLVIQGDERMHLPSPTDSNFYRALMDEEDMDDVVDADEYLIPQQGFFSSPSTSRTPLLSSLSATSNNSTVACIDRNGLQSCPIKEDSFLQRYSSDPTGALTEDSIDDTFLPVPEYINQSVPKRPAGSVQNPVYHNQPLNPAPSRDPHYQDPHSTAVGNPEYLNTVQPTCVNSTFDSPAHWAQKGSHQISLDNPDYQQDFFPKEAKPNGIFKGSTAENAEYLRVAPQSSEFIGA
Sequence of Protein arginine N-methyltransferase 1 (Q99873 whole entry, looked up): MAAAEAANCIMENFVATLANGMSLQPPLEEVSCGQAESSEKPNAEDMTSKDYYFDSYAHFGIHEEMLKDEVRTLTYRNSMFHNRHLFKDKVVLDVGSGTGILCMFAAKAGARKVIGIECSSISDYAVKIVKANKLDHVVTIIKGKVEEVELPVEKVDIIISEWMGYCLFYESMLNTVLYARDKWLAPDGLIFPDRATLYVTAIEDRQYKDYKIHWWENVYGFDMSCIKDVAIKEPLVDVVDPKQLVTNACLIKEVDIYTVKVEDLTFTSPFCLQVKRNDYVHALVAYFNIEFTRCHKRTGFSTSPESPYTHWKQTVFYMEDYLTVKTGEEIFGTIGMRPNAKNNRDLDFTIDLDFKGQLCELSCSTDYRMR
Sequence of Epidermal growth factor receptor (Homo sapiens), P00533 [G719C] (P00533 whole entry G719C): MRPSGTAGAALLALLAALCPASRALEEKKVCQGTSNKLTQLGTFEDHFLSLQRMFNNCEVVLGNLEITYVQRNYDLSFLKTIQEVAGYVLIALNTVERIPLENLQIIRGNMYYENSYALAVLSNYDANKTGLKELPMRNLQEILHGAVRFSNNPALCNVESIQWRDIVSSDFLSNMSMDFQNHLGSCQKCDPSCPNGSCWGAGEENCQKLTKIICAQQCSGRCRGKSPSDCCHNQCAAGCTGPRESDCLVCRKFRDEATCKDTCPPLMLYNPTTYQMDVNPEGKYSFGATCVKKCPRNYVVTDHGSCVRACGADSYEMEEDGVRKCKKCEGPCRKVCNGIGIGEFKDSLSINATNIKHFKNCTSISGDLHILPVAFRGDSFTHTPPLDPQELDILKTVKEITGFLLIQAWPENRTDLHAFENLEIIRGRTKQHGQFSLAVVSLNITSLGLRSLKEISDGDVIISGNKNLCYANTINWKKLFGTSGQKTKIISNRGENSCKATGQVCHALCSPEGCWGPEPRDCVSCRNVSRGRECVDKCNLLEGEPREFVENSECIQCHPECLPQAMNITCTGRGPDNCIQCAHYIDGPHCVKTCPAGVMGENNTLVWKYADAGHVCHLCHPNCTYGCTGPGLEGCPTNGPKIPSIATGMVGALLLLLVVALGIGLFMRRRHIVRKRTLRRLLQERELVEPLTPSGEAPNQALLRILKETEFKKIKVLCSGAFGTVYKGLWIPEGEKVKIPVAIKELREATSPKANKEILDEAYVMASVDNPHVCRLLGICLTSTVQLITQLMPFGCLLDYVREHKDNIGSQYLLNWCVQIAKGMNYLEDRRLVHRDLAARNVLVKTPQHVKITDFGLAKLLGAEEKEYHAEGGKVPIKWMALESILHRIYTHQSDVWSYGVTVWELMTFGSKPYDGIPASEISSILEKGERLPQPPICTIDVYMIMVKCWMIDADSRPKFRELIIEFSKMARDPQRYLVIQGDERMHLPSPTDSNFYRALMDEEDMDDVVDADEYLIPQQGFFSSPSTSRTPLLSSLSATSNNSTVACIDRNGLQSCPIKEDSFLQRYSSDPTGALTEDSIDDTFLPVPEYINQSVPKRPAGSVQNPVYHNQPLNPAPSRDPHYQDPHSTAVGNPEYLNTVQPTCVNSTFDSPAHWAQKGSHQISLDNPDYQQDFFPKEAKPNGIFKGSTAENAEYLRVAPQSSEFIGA

% activity [1]: > 90%
SMILES: CNCCN1CCC(c2cc(CN(C)C(=O)c3cccc(Oc4ccccc4)c3)ccn2)CC1

SMILES: Cc1cc([C@@H](C)Nc2ccccc2C(=O)O)c2nc(N3CCOCC3)cc(=O)n2c1 [AZD-6482]
% of control [2]: 85%

SMILES: O=C(NOC[C@H](O)CO)c1ccc(F)c(F)c1Nc1ccc(I)cc1F
% of control [3]: 86%
% of control [4]: 100%

SMILES: CCC(=O)N1CCN(c2ccc(-n3c(=O)ccc4cnc5ccc(-c6cnc7ccccc7c6)cc5c43)cc2C(F)(F)F)CC1
% of control [5]: 41%

% of inhibition [6]: -19.1%
% of control [7]: -0.692%
SMILES: Cn1cc(-n2cnc3c(NCc4nc5cc(Cl)c(Cl)cc5[nH]4)nc(N4CCOCC4)nc32)cn1

From ChEMBL document CHEMBL5465560, “Selectivity Literature for EUbOPEN Chemogenomic Library” (2024)
